# Source: patent US20140296263A1, “SUBSTITUTED XANTHINE DERIVATIVES” (CONCERT PHARMACEUTICALS, INC., priority 2011, published 2014)
# Tests used:
# [1] = test system: reactive oxygen species (ROS); assay: ROS inhibition assay in whole blood (neutrophils, DHR-123 flow cytometry); format: cell-based, human; details: fMLP or PMA stimulated whole blood, potency relative to compound 401, FIG. 1
# Protocol: Whole blood (sodium heparin vacutainer) was obtained from two normal, healthy donors from Research Blood Components, Boston, Mass. For each donor sample, two duplicate assays were performed according to the following procedure. Whole blood (100 μl) was added to wells of a 96 deep-well plate. Compounds were serially diluted in Hanks Balanced Salt Solution (HBSS) to achieve a desired dose-response. The resulting diluted solutions (100 μl) were added to the whole blood samples, mixed gently, and incubated for 30 minutes at 37° C., 5% CO2. The blood was then stimulated by addition of Formyl-Methionyl-Leucyl-Phenylalanine (fMLP) (1 μM final concentration) or phorbol myristate acetate (PMA) (10 ng/ml final concentration) and was further incubated for 20 minutes at 37° C., 5% CO2. Dihydrorhodamine 123 (DHR-123) reagent (Invitrogen), a cell-permeable probe that becomes highly fluorescent when oxidized, was then added to the blood at a final concentration of 0.5 μM and incubated for another 20 minutes at 37° C., 5% CO2. The red blood cells were then lysed in 1 ml ammonium chloride-potassium (ACK) lysis buffer (Invitrogen) for 10 minutes at room temperature. The remaining leukocytes (including the neutrophils) were washed once in HBSS and resuspended in HBSS/0.5% paraformaldehyde. To quantify intracellular ROS production, the fluorescence of the oxidized form of DHR-123, which is a fluorescent compound, was measured. The level of oxidized DHR-123 in neutrophils was assessed for each sample by measuring cell fluorescence on a flow cytometer. The IC50 value was calculated using commercially available statistics software and the average IC50 values from the two donors was calculated. The potency of the compound relative to the potency of compound 401 was obtained by dividing the IC50 value of compound 401 by the IC50 value of the compound.
# IFN-gamma = IFN-gamma assay (blood donors); format: cell-based, human; details: for IC50: Homo sapiens
# TNF-α = TNF-α inhibition assay in LPS-stimulated whole blood; format: cell-based, human; details: LPS-induced TNF-α in whole blood, potency relative to compound 401, FIG. 1
# Protocol: Whole blood (sodium heparin vacutainer) was obtained from two normal, healthy donors from Research Blood Components, Boston, Mass. For each donor sample, two duplicate assays were performed according to the following procedure. Blood was diluted 1:1 with Opti-MEM® Reduced Serum Medium (Invitrogen) and 100 μl of diluted blood was added to wells of a 96-well plate. The test compounds were serially diluted in Opti-MEM® to create a dose-response. The resulting diluted solutions (50 μl) were then added to the wells containing diluted blood and the mixture was incubated for 15 minutes at 37° C., 5% CO2. Lipopolysaccharide (LPS) strain 113:H10 (obtained from Associates of Cape Cod #E0005) was prepared at a 4× concentration and 50 μl of 4 ng/ml solution was added to the blood to achieve a final concentration of 1 ng/ml. Control wells contained diluted blood and 100 μl Opti-MEM® (negative control) or 50 μl Opti-MEM® plus 50 μl LPS (positive control). Plates were then incubated for 24 h at 37° C., 5% CO2. After incubation, diluted plasma was harvested by centrifugation at 3000 RPM for 2 minutes to pellet the blood cells. Supernatant (diluted plasma) was then transferred into a clean 96-well plate. The diluted plasma was further diluted 1:10 with ELISA reagent diluents and the TNF-α level for each compound was measured following manufacturer's instructions for the DuoSet® ELISAs (R & D Systems). The IC50 value for the compound was calculated using commercially available statistics software and the average IC50 values from the two donors was calculated. The potency of the compound relative to the potency of compound 401 was obtained by dividing the IC50 value of compound 401 by the IC50 value of the compound.
# MCP-1 = MCP-1 assay (blood donors); format: cell-based, human; details: for IC50: Homo sapiens
# From the text: MCP-1 is a known pro-inflammatory cytokine that plays important roles in various diseases.
# [2] = pentoxifylline and its metabolites; cited from earlier work
Structure (SMILES),activity (relative potency) in the ROS inhibition assay [1],activity (relative potency) in the ROS inhibition assay ([1]; listed as M-2),IC50 (IFN-gamma; Donor I),IC50 (IFN-gamma; Donor II),IFN-gamma IC50 values compared with Compounds 400 and 401 (IFN-gamma; one donor),IFN-gamma IC50 values compared with Compounds 400 and 401 (IFN-gamma; second donor),activity (relative potency) in the TNF-α inhibition assay (TNF-α),activity (relative potency) in the TNF-α inhibition assay (TNF-α; listed as M-2),IC50 (MCP-1; Donor 1),IC50 (MCP-1; Donor 2),MCP-1 IC50 values compared with Compounds 400 and 401 (MCP-1; both donors of Table 2),time to peak plasma levels [2]
"Cn1cnc2c1c(=O)n(CCCCC(O)CO)c(=O)n2C (stereo not drawn) [Compound 308, 1-(5,6-Dihydroxyhexyl)-3,7-dimethyl-1H-purine-2,6(3H,7H)-dione]",comparable activity,active,72 µM,119 µM,slightly higher,very similar,comparable activity,active,194 µM,125 µM,slightly higher,
"CC(=O)CCCCn1c(=O)c2c(ncn2C)n(C)c1=O [Compound 400, 1-(5-oxohexyl)-3,7-dimethylxanthine]",comparable activity,,78 µM,63 µM,,,comparable activity,,80 µM,80 µM,,within one hour
CC(O)C(O)CCCn1c(=O)c2c(ncn2C)n(C)c1=O (stereo not drawn) [Compound M-3],significantly lower activity,,,,,,significantly lower activity,,,,,
Cn1cnc2c1c(=O)n(CCCCC(=O)O)c(=O)n2C [Compound M-4],significantly lower activity,,,,,,significantly lower activity,,,,,
Cn1cnc2c1c(=O)n(CCCC(=O)O)c(=O)n2C [Compound M-5],significantly lower activity,,,,,,significantly lower activity,,,,,
